Reference: publication PMC12040169 (PLOS Biology, 2025)

Experiment: in vitro
Settings: human, hela cells, % viability

| Structure (SMILES) | viability at 28.5 h, 10 µM [%] |
| --- | --- |
| CNC(=O)C1(Cc2ccc(-c3ccccc3)cc2)CCN(C(=O)c2ccccc2)CC1 [CBK285761] | 96.5 |
| Cc1ccc(Cl)cc1NC(=O)c1cc(NC(=O)C2CC=CCC2C(=O)O)ccc1N1CCOCC1 (stereo not shown) [CBK268479] | 99.1 |
| COCCOc1nccnc1N1CCNCC1 [CBK001903G] | 103 |
| Cc1ccc2[nH]c(Cc3ccc(NC(=O)c4nc5ccccc5n(C)c4=O)cc3)nc2c1 [CBK285802] | 83.8 |
| CN(CC(=O)NCC1CCN(c2cccc(Cl)c2)C1)Cc1cccnc1 (stereo not shown) [CBK306761] | 93.4 |
| O=C1NC2=C(C(=O)N(CC3CCCO3)C2)C(c2cccc(F)c2)N1 (stereo not shown) [CBK282364] | 86.1 |
| CC/C(=C/c1sc2ccc3ccccc3c2[n+]1CCCS(=O)(=O)[O-])SC [CBK260901] | 104 |
| Cc1c(Nc2cnn(C34CC5CC(CC(CC(=O)O)(C5)C3)C4)c(=O)c2Cl)c(=O)n(-c2ccccc2)n1C [CBK268707] | 89 |
| NC(CC(=O)O)c1ccc(OCCc2ccccc2)cc1 (stereo not shown) [CBK287053] | 91.6 |
| O=C(COc1ccc(S(=O)(=O)N2CCOCC2)cc1)NCc1ccco1 [CBK268377] | 108 |
| CN1CCN(C(=O)c2cccc(-n3cccn3)c2)C(c2ccccc2)C1 (stereo not shown) [CBK282013] | 90.5 |
| Cc1cc2nccc(C3CCCN(C(=O)c4ccccc4F)C3)n2n1 (stereo not shown) [CBK284184] | 97.2 |
| CCCc1ccc(S(=O)(=O)Nc2ccc(C(=O)O)cc2)cc1 [CBK034044] | 114 |
| COc1ccc(C(=O)Nc2ccccc2C(=O)Nc2cccc([N+](=O)[O-])c2)cc1 [CBK265894] | 101 |
| COC(=O)CC1(C)C(=O)CCC2(C)C1=CCc1ccccc12 (stereo not shown) [CBK006547] | 105 |
| FC(F)(F)c1ccnc(OC2CCNCC2)n1 [CBK113294] | 118 |
| COc1cncc(-c2cc(Nc3ccc(OC)c(OC)c3)ncn2)c1 [CBK090824] | 92 |
| COC(=O)c1ccc(-c2ccc(F)cc2OC)nc1 [CBK149230] | 88.3 |
| CC(C)c1ccc2oc(-c3ccc(NC(=S)NC(=O)c4cncc(Br)c4)cc3)nc2c1 [CBK264913] | 106 |
| O=C(CSc1cnn[nH]1)Nc1ccc(F)cc1 [CBK270024] | 89.6 |
| CC(C)C(NS(=O)(=O)c1ccc2ccccc2c1)C(=O)O (stereo not shown) [CBK286919] | 96.7 |
| Cc1ccn(CCNC(=O)Cc2coc3cc(C)c(C)cc23)n1 [CBK282578] | 107 |

| Structure (SMILES) | viability at 28.5 h, 10 µM [%] |
| --- | --- |
| O=C1NN(c2ccc(Br)cc2)C(=O)/C1=C\c1ccc(-c2ccc3c(c2)C(=O)NC3=O)o1 [CBK262968] | 111 |
| CS(=O)(=O)N1CCc2cc(-c3csc(N)n3)ccc21 [CBK304596] | 102 |
| CN1CCN(C(=O)c2cnn(-c3ccccc3)c2NC(=O)c2ccc(F)cc2)CC1 [CBK265198] | 88.3 |
| CCN1CCN(C(=O)CN(Cc2ccc(Cl)cc2)S(C)(=O)=O)CC1 [CBK269263] | 82.8 |
| CN1CCN(C)C(CNC(=O)c2ccc(-c3ccccc3CO)cc2)C1 (stereo not shown) [CBK307475] | 84.2 |
| CC1=CCC2(CC1)COC(C(C)(C)CN(C)C)OC2 (stereo not shown) [CBK011369] | 91.7 |
| COc1ccc2cc(Cn3nc(C(=O)O)c4ccccc4c3=O)c(Cl)nc2c1 [CBK295354] | 88 |
| O=C(c1cc(F)c(F)cc1F)N1CCC2(CCCN(Cc3cc(=O)[nH]c(=O)[nH]3)C2)C1 (stereo not shown) [CBK132010] | 101 |
| CCOC(=O)C1CCCN(S(=O)(=O)c2cc(C)c(Cl)cc2C)C1 (stereo not shown) [CBK044846] | 108 |
| N#Cc1ccc(CSc2ncccc2C(=O)O)cc1 [CBK287187] | 85.9 |
| Cc1ccncc1C(=O)Nc1c(C)noc1C [CBK200393] | 80.7 |
| CCN1CCC(NCc2ccc(OCC(N)=O)cc2)CC1 [CBK306106] | 85.9 |
| O=C(NC(N1CCCCC1)C(Cl)(Cl)Cl)NC(N1CCCCC1)C(Cl)(Cl)Cl (stereo not shown) [CBK261020] | 98.2 |
| Cn1c(=O)n(C)c2cc(S(=O)(=O)NCC3(O)CCCNCC3)ccc21 (stereo not shown) [CBK306777] | 84.9 |
| COC(=O)c1cccc2c3c([nH]c12)CCCC3 [CBK000423] | 87.8 |
| CC1=C(C(=O)Nc2ccccc2)C(c2cccs2)C(C#N)=C(SCC(=O)c2ccc(Br)cc2)N1 (stereo not shown) [CBK261384] | 104 |
| O=[N+]([O-])c1ccccc1S(=O)(=O)N1CCN(C2CCCCCC2)CC1 [CBK264171G] | 95.4 |
| Cc1ccc(CS(=O)(=O)NCc2ccccc2-n2ccnc2)cc1 [CBK281462] | 96.5 |
| COc1cc(C(N)C(=O)O)ccc1OCc1ccccc1 (stereo not shown) [CBK286909] | 82.6 |
| O=C(Nc1ccc2nsnc2c1NC(=O)c1ccc2nsnc2c1)c1ccc2nsnc2c1 [CBK264309] | 95.9 |
| Oc1ccc(Oc2ccc(Oc3ccc(O)cc3)cc2)cc1 [CBK033968] | 107 |
| CCOc1cc(CNCc2ccccn2)cc(Cl)c1OCC [CBK268516C] | 106 |

| Structure (SMILES) | viability at 28.5 h, 10 µM [%] |
| --- | --- |
| COc1ccc(Cn2nc(N)c3ccccc32)cc1 [CBK093530] | 93.3 |
| Cn1c(=O)c2c(nc(NCCO)n2CCc2ccccc2)n(C)c1=O [CBK267497] | 87.8 |
| O=C(COc1ccccc1)C(C(=O)c1ccccc1)=C1Nc2ccccc2N1 [CBK263725] | 97.8 |
| COc1ccccc1CCNC(=O)c1cnccn1 [CBK268147] | 59.7 |
| CNS(=O)(=O)c1cccc(C(C)NC(=O)N2CCC(COC)CC2)c1 (stereo not shown) [CBK304087] | 90.4 |
| Cc1ccc(CNC(=O)C2CC(=O)N(c3cccc(C)c3C)C2)cc1 (stereo not shown) [CBK295183] | 97.5 |
| CC12CN(Cc3ccccc3)CC1NC(=O)c1ccccc1C2N (stereo not shown) [CBK282850] | 99.5 |
| O=C(Nc1ccc(C(=O)Nc2cccc(-c3nc4ccccc4o3)c2)cc1)c1ccc([N+](=O)[O-])cc1 [CBK262606] | 96.6 |
| COc1ccc(Cl)cc1NC(=S)NNC(=O)c1cccnc1 [CBK267161] | 92.7 |
| Cc1ccc(-c2csc(NC(=O)CS(=O)(=O)c3ccccc3)n2)cc1 [CBK287707] | 89.2 |
| Cn1ccnc1C1(O)C2CCCC1CN(CC1CCCCC1)C2 (stereo not shown) [CBK285220] | 91.5 |
| COc1ccc([C@@]23CC[C@H](NC(=O)CS(=O)(=O)c4ccccc4)C[C@@H]2N(C)CC3)cc1OC [CBK036445] | 105 |
| O=C(O)C1CC=CCC1C(=O)Nc1ccc(CN2CCOCC2)cc1 (stereo not shown) [CBK299786] | 107 |
| CC1C(c2ccccc2)CCC(C(=O)O)C1C(=O)O (stereo not shown) [CBK286566] | 90.5 |
| O=C(NCc1nnc(-c2cccs2)o1)C(c1ccccc1)c1ccccc1 [CBK286294] | 92.6 |
| Cc1ccc(S(=O)(=O)NC(=O)N2CC3(C)CC2CC(C)(C)C3)cc1 (stereo not shown) [CBK023512] | 110 |
| O=C(c1cccnc1)C1CCN(C(=O)c2cc(F)cc(F)c2)CC1 [CBK283746] | 102 |
| O=S(=O)(c1ccc(Cl)cc1)N1CCN(c2cc(-c3ccco3)ncn2)CC1 [CBK091161] | 111 |
| CNCC1CCCN1S(=O)(=O)c1ccc(OCc2ncnn2C)cc1 (stereo not shown) [CBK304500] | 90 |
| O=C(O)CCN1CCCC2(CCN(C(=O)Cc3c[nH]c4ccccc34)C2)C1 (stereo not shown) [CBK137138] | 114 |
| CC(C)[C@@H](CO)n1c(=O)[nH]c2ncc(-c3cccc4cccnc34)nc21 [CBK064848] | 102 |
| Cc1ccc(N(CC(O)CNC23CC4CC(CC(C4)C2)C3)S(=O)(=O)c2ccccc2)cc1 (stereo not shown) [CBK264741] | 110 |

| Structure (SMILES) | viability at 28.5 h, 10 µM [%] |
| --- | --- |
| O=C(CSc1nc2ccccc2nc1N1CCCC1)N1CCN(c2ccccc2)CC1 [CBK293977] | 86.5 |
| N#CCn1nnc(-c2ccc3c(c2)OCO3)n1 [CBK062663] | 98.7 |
| Nc1ccc2nc(CCCCCC(=O)O)sc2c1 [CBK016399] | 114 |
| CCN(CC)C(=O)c1cccc(NC(=O)Cc2cn3ccsc3n2)c1 [CBK305353] | 85.6 |
| CCCC(=O)N1CCn2c(nnc2-c2cncc(Br)c2)C1 [CBK304761] | 93.4 |
| O=C(c1cc(C(F)(F)F)cc(C(F)(F)F)c1)N1CCC(O)(c2ccc(Cl)cc2)CC1 [CBK061972] | 96.9 |
| CC(C)c1ccc(OCCN2CCNCC2)cc1 [CBK266024C] | 96 |
| CN(C)c1ccc(Nc2nc(NCCO)c3ccccc3n2)cc1 [CBK268392C] | 87.6 |
| COc1c[nH]c(C(=O)NC(CCn2ccnc2)c2ccccc2)cc1=O (stereo not shown) [CBK306743] | 94 |
| C[C@@H](c1ccccc1)n1c(=O)[nH]c2ncc(-c3ccc(N(C)C)cc3)nc21 [CBK064352] | 103 |
| CCc1cc(-c2n[nH]c(C(=O)O)c2-c2nc(C)cs2)c(O)cc1O [CBK268247] | 99.4 |
| Cc1ccc(N(Cc2ccccc2OC(=O)c2cccnc2)C2=NS(=O)(=O)c3ccccc32)cc1 [CBK265760] | 88.4 |
| Cc1nc(CC(=O)Nc2nn(C)c3cccc(N4CCOCC4)c23)cs1 [CBK306627] | 89.7 |
| CCOc1cc(/C=C/c2ccc3cccc(O)c3n2)cc(Br)c1O [CBK264451] | 95 |
| COc1ccc(F)cc1-c1ccc(CC2(C(=O)NCc3cccs3)CCOCC2)cc1 [CBK285540] | 112 |
| CCOC(=O)Cn1c(CN2CCC(Cc3ccccc3)CC2)nc2c1c(=O)n(C)c(=O)n2C [CBK269454] | 89.8 |
| COc1ccc2c(c1)C1(CC(=O)N(Cc3ccccc3)C1=O)C(=O)N2Cc1ccccc1 (stereo not shown) [CBK075228] | 106 |
| CC(=O)Nc1ccc(S(=O)(=O)Nc2ccc(-c3cn4cccnc4n3)cc2)cc1 [CBK268671] | 105 |
| CCN(C(=O)c1cnc2scc(C)n2c1=O)c1ccccc1 [CBK287452] | 105 |
| Nc1nccnc1C(=O)N1CCN(C(=O)Cc2c[nH]c3ccccc23)CC1 [CBK298339] | 88.1 |
| c1ccc(C(CCN2CCC[C@@H]2CN2CCCC2)c2ccccc2)cc1 [CBK149109] | 89.7 |
| CCOC(=O)C(NC(=O)CCn1ccc2ccncc21)C(C)C (stereo not shown) [CBK284719] | 91.6 |
